{
  "source": "paper PMC6272027",
  "about": "“Trithiocyanurate Complexes of Iron, Manganese and Nickel and Their Anticholinesterase Activity” (Molecules, 2014)",
  "biological_target": "cholinesterases (rat brain homogenate)",
  "test": "In vitro anticholinesterase inhibition test (rat brain homogenate, acetylcholine iodide substrate, automatic titration)",
  "type": "biochemical",
  "conditions": "anticholinesterase activity in vitro; for IC50: rat brain homogenate, substrate acetylcholine iodide; for HillSlope: nonlinear regression (GraphPad Prism)",
  "procedure": "In vitro inhibition test was conducted as described earlier. Solutions of the prepared Fe(L1)](ttcH2)(ClO4)·EtOH·H2O (1), [Mn3(phen)6(ttc)](ClO4)3 (2), and Ni2(L2)(ttcH)(ClO4)2·6H2O·EtOH (3) complexes of appropriate concentrations (concentration range from 10^−7 to 10^−1 M; 500 µL) were added to the suspension of rat brain homogenate (10 w/v in distilled water; 500 µL), solution of sodium chloride (3 M; 2.5 mL) and water (20 mL). Subsequently, a solution of acetylcholine iodide (0.02 M; 2.0 mL) was added (=starting of the enzyme reaction). The enzyme activity was immediately determined using of automatic titrator RTS 822 (Radiometer, Bronshoj, Denmark). The IC50 values were calculated from a plot of percent inhibition of cholinesterases versus its concentration. […] Nonlinear regression was performed using software for statistical analysis GraphPad Prism version 4 for Windows (GraphPad Software, San Diego, CA, USA; www.graphpad.com).",
  "data": [
    {"molecule": "O=S(=O)([O-])[O-].[Fe+2]", "note": "[FeSO4, reference compound]", "values": [
      {"measurement": "IC50", "result": "> 1000", "unit": "µM"}
    ]},
    {"molecule": "O=S(=O)([O-])[O-].[Ni+2]", "note": "[NiSO4, reference compound]", "values": [
      {"measurement": "HillSlope", "result": "−0.3920"},
      {"measurement": "IC50", "result": 12900, "unit": "µM"}
    ]},
    {"molecule": "O=S(=O)([O-])[O-].[Mn+2]", "note": "[MnSO4, reference compound]", "values": [
      {"measurement": "IC50", "result": "> 1000", "unit": "µM"}
    ]},
    {"molecule": "[Mn3(phen)6(ttc)](ClO4)3 [compound 2]", "values": [
      {"measurement": "HillSlope", "result": 0.2280},
      {"measurement": "IC50", "result": 33.4, "unit": "µM"}
    ]}
  ]
}
